The target in one data set is T1, human β3-AR (Homo sapiens, UniProt P13945).
T1 construct: Full-length β3-AR clones (402 amino acids) containing the last 6 amino acids of hβ3-AR; expressed in transfected cells; host or cells: CHO (Chinese hamster ovary) cells
Briefly: cAMP accumulation (SPA) in CHO cells transfected with human β3-AR. Type of data set: cell-based. The note with it: CHO cells transfected with human β3-AR; for EC50: cAMP by SPA, 30 min at 37° C., 10^−9 M to 10^−5 M, read-out: EC50(β3); for IA(β3): maximal response of compound relative to maximal response of isoproterenol at 10^−5 M. The method, then:
The ability of the compounds of this invention to treat or inhibit disorders related to insulin resistance or hyperglycemia was confirmed with representative compounds of this invention in the following standard pharmacological test procedures, which measured the binding selectivity of the β1-, β2-, and β3-AR. Binding to the receptors was measured in Chinese Hamster ovary (CHO) cells that were transfected with β1-, β2-, and β3-AR's. The following briefly summarizes the procedures used and results obtained.
Cloning of Human β3-AR Genomic DNA: cDNA was constructed by ligating four polymerase chain reaction (PCR) products using the following primers: an ATG-Narl fragment, sense primer 5′-[…]3′ and anti-sense primer 5′[…]3′; a Narl-Accl fragment, 5′[…]3′ as sense and 5′[…]3′ as anti-sense primer; an Accli—Styl fragment, sense primer 5′[…]3′ and anti-sense primer 5′[…]3′ and a Styl-TAG fragment, with sense primer 5′ […]3′ and anti-sense primer 5′ […]3′ . The corresponding primer sequences are described in Mantzoros, C. S., et.al., Diabetes, 1996, 45, 909-914. The four fragments are ligated into a pUC 18 plasmid (Gibco-BRL) and sequenced. Full-length β3-AR clones (402 amino acids) containing the last 6 amino acids of hβ3-AR are prepared with the β3-βARpcDNA3 from ATTC.
Binding Procedure: Clones expressing receptor levels of 70 to 110 fmoles/mg protein were used in the test procedures. CHO cells were grown in 24-well tissue culture plates in Dulbecco's Modified Eagle Media with 10% fetal bovine serum, MEM non-essential amino acids, Penicillin—Streptomycin and Geneticin. On the day of test procedure, growth medium was replaced with preincubation media (Dulbecco's Modified Eagle Media) and incubated for 30 minutes at 37° C. Pre-incubation medium was replaced with 0.2 ml treatment medium containing DMEM media containing 250 μM IBMX (isobutyl-1-methylxantine) plus 1 mM ascorbic acid with test compound dissolved in DMSO. Test compounds were assayed over a concentration range of 10^−9 M to 10^−5 M for β3-AR transfected cells and 10^−8 to 10^−4 M for β1-AR and β2-AR transfected cells. Isoproterenol (10^−5 M) was used as an internal standard for comparison of activity. Cells were incubated at 37° C. on a rocker for 30 min with the β3-AR transfected cells and 15 min with β1-AR and β2-AR transfected cells. Incubation was stopped by the addition of 0.2N HCl and the acid was neutralized with 2.5N NaOH. The plates, containing the cells and neutralized media, were stored at −20° C. until ready to test for cAMP using the SPA test kit (Amersham).
Data Analysis and Results: Data collected from the SPA test procedure were analyzed as percent of the maximal isoproterenol response at 10^−5 M. Activity curves were plotted using the SAS statistical and graphics software.
(In general: Changes in cAMP serve as a functional read-out for many G protein-coupled receptors.)

Structures are written as SMILES.

This note sets out measurements from patent US6395762B1, “Phenyl amino squarate and thiadiazole dioxide beta-3 adrenergic receptor agonists” (American Home Products Corporation, priority 2000, dated 2002).

T1 sequence (P13945 whole entry): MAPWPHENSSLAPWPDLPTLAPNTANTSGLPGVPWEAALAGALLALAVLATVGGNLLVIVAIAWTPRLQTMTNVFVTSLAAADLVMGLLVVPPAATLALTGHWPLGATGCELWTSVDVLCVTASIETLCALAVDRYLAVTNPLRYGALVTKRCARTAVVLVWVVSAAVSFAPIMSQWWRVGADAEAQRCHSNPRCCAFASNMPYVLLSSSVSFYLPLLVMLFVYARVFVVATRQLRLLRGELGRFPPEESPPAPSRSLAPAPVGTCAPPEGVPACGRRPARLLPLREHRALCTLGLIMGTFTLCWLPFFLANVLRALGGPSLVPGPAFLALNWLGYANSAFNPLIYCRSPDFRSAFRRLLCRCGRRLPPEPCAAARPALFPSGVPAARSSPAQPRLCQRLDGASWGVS

`CCCCCCNC1=NS(=O)(=O)N=C1Nc1cccc(CC(C)NC[C@H](O)c2cccc(Cl)c2)c1` (stereo partly drawn) [Compound 9, (1R)-1-(3-Chloro-phenyl)-2-{2-[3-(4-hexylamino-1,1-dioxo-1H-1-.lambda(6) .-[1,2,5]thiadiazol-3-ylamino)-phenyl]-1-methyl-ethylamino}-ethanol] displayed a melting point of 90 to 96 °C. Moreover, on human β3-AR, the EC50 came out at 204 nM and the “IA(β3)” value was 0.74.
For `CCCCCCCCNC1=NS(=O)(=O)N=C1Nc1ccc(CC(C)NC[C@H](O)c2ccc(O)c(NS(C)(=O)=O)c2)cc1` (stereo partly shown) [Compound 6] the same measures were 120 °C (dec.), 2 nM and 1.26.
For `CCCCCCCCCCNc1c(Nc2ccc(CC(C)NC[C@H](O)COc3ccc(O)cc3)cc2)c(=O)c1=O` (stereo partly shown) [Compound 15] the same measures were 130 to 132 °C, 86 nM and 0.97.
Regarding `CCCCCCCCCCNc1c(Nc2ccc(CCCNC[C@H](O)COc3cccc4[nH]c5ccccc5c34)cc2)c(=O)c1=O` [Compound 17, 3-(4-{[(2S)-3-(9H-Carbazol-4-yloxy)-2-hydroxy-propylamino]-propyl}-phenylamino)-4-decylamino-cyclobut-3-ene-1,2-dione], the melting point was determined as 225 °C. Further, the “IA(β3)” value on human β3-AR was 0.31.
For the compound `CCCCCCCCNc1c(Nc2ccc(CC(C)NC[C@H](O)COc3cccc4[nH]c5ccccc5c34)cc2)c(=O)c1=O` (stereo partly drawn) [Compound 16, 3-(4-{2-[(2S)-3-(9H-Carbazol-4-yloxy)-2-hydroxy-propylamino]-propyl}-phenylamino)-4-octylamino-cyclobut-3-ene-1,2-dione], the melting point lay in the range of 125 to 131 °C. For the same compound, at human β3-AR, the EC50 is 233 nM and the “IA(β3)” value was determined as 0.47.
For `CC(Cc1ccc(NC2=NS(=O)(=O)N=C2NCC2(c3ccccc3)CCCC2)cc1)NC[C@H](O)COc1ccc(OCc2ccccc2)cc1` (stereo partly drawn) [Compound 30, (2S)-1-(4-Benzyloxy-phenoxy)-3-[2-(4-{1 ,-dioxo-4-[(1-phenyl-cyclopentylmethyl)-amino]-1H-1(lambda(6))-[1,2,5]thiadiazol-3-ylamino}-phenyl)-1-methyl-ethylamino]-propan-2-ol] the same measures were 103 to 105 °C, 116 nM and 0.93.
As for `CCCCCCCCNC1=NS(=O)(=O)N=C1Nc1ccc(CC(C)NC[C@H](O)COc2ccccc2)cc1` (stereo partly drawn) [Compound 22, (2S)-1-{[1-methyl-2-(4-{[4-(octylamino)-1,1-dioxido-1,2,5-thiadiazol-3-yl]amino}phenyl)ethyl]amino}-3-phenoxypropan-2-ol], the melting point lay within 77 to 82 °C. Also, on human β3-AR, the “IA(β3)” value is reported as 0.39.

A word on the EC50: it is the midpoint of the concentration-response curve. The term melting point denotes the temperature, or range, at which the solid turns liquid.
